Data set [1] is described as follows: RAD001 PK analysis in NSG mice with NALM6-luc tumors. In kind it is in vivo. To be noted: for concentration at 24 h: NSG, mouse. As for the experimental part:
(§1) A concentrated micro-emulsion of 50 mg equal to 1 mg RAD001 was formulated and then resuspended in D5W (dextrose 5% in water) at the time of dosing. Mice were orally dosed daily (via oral gavage) with 200 μl of the desired doses of RAD001.
Mice were dosed daily with RAD001 starting 7 days post tumor implantation. Dosing groups were as follows: 0.3 mg/kg, 1 mg/kg, 3 mg/kg, and 10 mg/kg. Mice were bled on days 0 and 14 following the first and last dose of RAD001, at the following time points for PK analysis: 15 minutes, 30 minutes, 1 hour, 2 hours, 4 hours, 8 hours, 12 hours, and 24 hours.

Data set [2] deals with CD4+ and CD8+ CAR T cells. In words: In vivo proliferation of humanized CD19 CART cells with and without RAD001. The note with it: 0.003 mg/kg daily with huCTL019. The procedure: FIG. 49A and FIG. 49B show in vivo proliferation of humanized CD19 CART cells with and without RAD001 dosing. […] Circles denote PBS; squares denote huCTL019; triangles denote huCTL019 with 3 mg/kg RAD001; inverted triangles denote huCTL019 with 0.3 mg/kg RAD001; diamonds denote huCTL019 with 0.03 mg/kg RAD001; and circles denote huCTL019 with 0.003 mg/kg RAD001.

The test system of data set [3] is NALM6-luc tumors. In words: NALM6-luc tumor growth under daily oral RAD001. In kind it is in vivo, NSG mice. To be noted: daily oral dosing of RAD001 alone. As for the experimental part: NALM6-luc cells were grown and expanded in vitro in RPMI supplemented with 10% heat inactivated fetal bovine serum. The cells were then transferred to a 15 ml conical tube and washed twice with cold sterile PBS. NALM6-luc cells were then counted and resuspended at a concentration of 10×10^6 cells per milliliter of PBS. The cells were placed on ice and immediately (within one hour) implanted in the mice. NALM6-luc cells were injected intravenously via the tail vein in a 100 μl volume, for a total of 1×10^6 cells per mouse.
as §1

Data set [4] deals with CAR-positive CD3-positive T cells co-cultured with Nalm-6 cells. In words: CART proliferation in co-culture with Nalm-6 cells with RAD001. In kind it is cell-based. The note with it: low doses of RAD001, 4 days of co-culture with Nalm-6. The procedure:
CARTs were co-cultured with Nalm-6 cells in the presence of different concentrations of RAD001. The number of CAR-positive CD3-positive T cells (black) and total T cells (gray) was assessed after 4 days of co-culture.

The subject of data set [5] is huCART19 cells. The data set is described as follows: CART proliferation in 4 day co-culture with Nalm-6 in presence of RAD001. It counts as cell-based, human. As for the experimental part: To evaluate the functionality of CARTs, the T cells are thawed and counted, and viability is assessed by Cellometer. The number of CAR-positive cells in each culture is normalized using non-transduced T cells (UTD). The impact of RAD001 on CARTs was tested in titrations with RAD001, starting at 50 nM. The target cell line used in all co-culture experiments is Nalm-6, a human pre-B cell acute lymphoblastic leukemia (ALL) cell line expressing CD19 and transduced to express luciferase.
For measuring the proliferation of CARTs, T cells are cultured with target cells at a ratio of 1:1. The assay is run for 4 days, when cells are stained for CD3, CD4, CD8 and CAR expression. The number of T cells is assessed by flow cytometry using counting beads as reference.

Data set [6] relates to huCAR19 CAR T cells. The data set is described as follows: CAR T cell expansion in vivo with RAD001 (FACS). More on the design: species or system NSG mice. To be noted: lowest doses of RAD001, daily oral. As for the experimental part: Mice were administered 5×10^6 CAR T cells 7 days after tumor implantation. Cells were partially thawed in a 37 degree Celsius water bath and then completely thawed by the addition of 1 ml of cold sterile PBS to the tube containing the cells. The thawed cells were transferred to a 15 ml falcon tube and adjusted to a final volume of 10 mls with PBS. The cells were washed twice at 1000 rpm for 10 minutes each time and then counted on a hemocytometer. T cells were then resuspended at a concentration of 50×10^6 CAR T cells per ml of cold PBS and kept on ice until the mice were dosed. The mice were injected intravenously via the tail vein with 100 μl of the CAR T cells for a dose of 5×10^6 CAR T cells per mouse. Eight mice per group were treated either with 100 μl of PBS alone (PBS), or humanized CD19 CAR T cells.
as §1
Based on these doses, huCAR19 CAR T cells were dosed with and without RAD001 to determine the proliferative ability of these cells. The highest dose used was 3 mg/kg based on the levels of RAD001 in the blood 24 hours after dosing. […] Mice were monitored via FACS for T cell expansion.

Entries after “also recorded” stand apart in the source; their conditions may differ. Like-named read-outs stand apart in the source and are kept apart here.

Regarding `CO[C@H]1C[C@@H]2CC[C@@H](C)[C@@](O)(O2)C(=O)C(=O)N2CCCC[C@H]2C(=O)O[C@H]([C@H](C)C[C@@H]2CC[C@@H](OCCO)[C@H](OC)C2)CC(=O)[C@H](C)/C=C(\C)[C@@H](O)[C@@H](OC)C(=O)[C@H](C)C[C@H](C)/C=C/C=C/C=C/1C` [RAD001, everolimus], the concentration at 24 h in data set [1] (blood, oral, 0.3 mg/kg, 24 hours after the final dose, read-out: concentration of RAD001) is greater than 10 nM; in data set [1] (whole blood, 24 hours after dosing, 0.3 mg/kg oral, day 0 and day 14, read-out: RAD001 concentrations in the blood), greater than 10 nM. For the same molecule, in data set [1] (daily oral dosing), the “stability in the blood of tumor bearing mice” value is recorded as “fairly stable”. Moreover, in data set [2], the “in vivo CAR T cell proliferation” value was “enhancement in CAR T cell proliferation”. In data set [3], the “impact on the growth of NALM6-luc tumors” value was “did not have an impact”. Moreover, the “proliferation of CAR-expressing, transduced T cells” value in data set [4] was “enhanced”. Besides, the “proliferation of huCART19 cells” value in data set [5] (0.0032 and 0.016 nM RAD001) is on record as “higher than observed without the addition of RAD001”. Moreover, the “expansion of huCART19 cells” value in data set [5] (less than 0.016 nM of RAD001) is reported as “expanded”. Also, the “proliferation of the CAR T cells in vivo” value in data set [6] was “enhanced proliferation; also recorded: more evident and prolonged with the CD4^+ CAR T cells”.

The values are drawn from patent US11981731B2, “Targeting cytotoxic cells with chimeric receptors for adoptive immunotherapy” (Novartis AG, priority 2014, dated 2024).
